The target in series [1] is T1, hPPARβ (Homo sapiens, UniProt Q03181).
T1 sequence (Q03181 171-441 limits assumed): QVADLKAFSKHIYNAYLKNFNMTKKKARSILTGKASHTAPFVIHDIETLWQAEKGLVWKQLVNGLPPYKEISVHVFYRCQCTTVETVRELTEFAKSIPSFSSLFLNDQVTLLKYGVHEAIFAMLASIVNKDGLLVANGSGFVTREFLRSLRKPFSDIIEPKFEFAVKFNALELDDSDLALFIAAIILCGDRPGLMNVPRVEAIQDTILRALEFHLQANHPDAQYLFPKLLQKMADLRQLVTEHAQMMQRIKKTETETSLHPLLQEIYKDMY
Nature of the series: Transient transfection assay in HepG2 cells, Gal4-hPPARβ chimeric receptor, luciferase reporter. Format: cell-based. The method, then: (§1) 1. Test A. Transient Transfections Assay using the HepG2 Hepatoma Cell Line.
(§2) HepG2 cells were transiently transfected with an expression plasmids encoding hPPARα, hPPARβ or mPPARγ chimeric receptors and a reporter containing the yeast upstream activating sequence (UAS) upstream of the viral E1B promoter controlling a luciferase reporter gene. In addition, the plasmid pRSVβ-gal was used to control for transfection efficiency. HepG2 cells were grown in DMEM supplemented with 10% FBS and 1 μM non-essential amino acid. On the first day, cells were split into 100 mm dishes at 2.5×10^6/dish and incubated overnight at 37° C./5% CO2. On the second day the cells were transiently transfected with plasmid DNA encoding a chimeric receptor, the luciferase reporter gene; and β-gal. For each 100 mm dish, 15 μg of lucifease reporter (PG5E1b) DNA, 15 μg of Gal4-PPAR chimeric receptor DNA, and 1.5 μg of β-gal plasmid DNA were mixed with 1.4 ml of opti-MEM in the tube. 28 μl of LipoFectamine-2000 reagent was added to 1.4 ml of opti-MEM in the tube, and incubate for 5 min at RT. The diluted Lipofectamine-2000 reagent was combined with the DNA mixture, and incubate for 20 min at RT. After fresh medium was added to each 100 mm dish of cells, 2.8 ml of Lipofectamine2000-DNA mixture was added dropwise to the 100 mm dish containing 14 ml of medium, and incubate 37° C. overnight. On day three cells were trypsinized off the 100 mm dishes and re-plated on 96 well plates. Cells were plated at 2.5×10^4 cells per well in 150 μl of media and 50 μl of compound diluted by media was added. The test compound added were in the range from 50 μM to 50 pM. After addition of compounds, the plates were incubated at 37° C. for 24 hours. Subsequently cells were washed with once with 100 μl of PBS, lysed, and processed for measuring luciferase and β-gal activity using Dual-Light luciferase kit from Tropix ®, according to the manufacturer's recommendations, on an EG&G Bethold MicroLumat LB96P luminometer. EC50 values were obtained using the GraphPad Prism™ program.

For series [2], the target named is T2, hPPARα (Homo sapiens, UniProt Q07869).
T2 sequence (Q07869 200-468 limits assumed): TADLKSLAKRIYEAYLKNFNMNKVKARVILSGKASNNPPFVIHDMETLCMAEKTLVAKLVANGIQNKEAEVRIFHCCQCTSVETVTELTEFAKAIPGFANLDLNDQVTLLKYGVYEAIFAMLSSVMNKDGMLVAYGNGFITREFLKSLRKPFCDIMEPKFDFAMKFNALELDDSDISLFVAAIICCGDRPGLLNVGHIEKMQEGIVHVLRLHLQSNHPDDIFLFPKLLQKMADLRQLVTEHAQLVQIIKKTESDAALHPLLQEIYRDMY
Nature of the series: Transient transfection assay in HepG2 cells, Gal4-hPPARα chimeric receptor, luciferase reporter. The following applies: Hep G2-hAlpha EC50, 24 hours incubation; read-out: EC50α nM (Group). Format: cell-based. The method, then: as §1, §2
Background: A reporter such as luciferase makes a cellular process visible.

[3] abbreviates: Hep G2-hBeta EC50, 24 hours incubation, read-out: EC50β nM (Group).

Where two headings read alike, the source gives them in different places.

With `O=C(O)COc1ccc(SCc2cccc(-c3ccc(C(F)(F)F)cc3)c2)c2c1CCC2` [Example 48, [7-(4′-Trifluoromethyl-biphenyl-3-ylmethylsulfanyl)-indan-4-yloxy]-acetic acid], the EC50 is less than 300 nM in series [1] (setting [3]) and 2000 to 5000 nM in series [2]. For `Cc1cc(SCc2ccc(-c3ccc(C(F)(F)F)cn3)cc2)ccc1OCC(=O)O` [Example 30, {2-Methyl-4-[4-(5-trifluoromethyl-pyridin-2-yl)-benzylsulfanyl]-phenoxy}-acetic acid] the same measures were 1000 to 2000 nM and 1000 to 2000 nM. As to `CCCc1cc(SCc2ccc(-c3ccc(C(F)(F)F)cc3)cc2)ccc1OCC(=O)O` [Example 52, [2-Propyl-4-(4′-trifluoromethyl-biphenyl-4-ylmethylsulfanyl)-phenoxy]-acetic acid], the results for the EC50 in series [1] (setting [3]) and in series [2] were less than 300 nM and 500 to 1000 nM, respectively. For `COc1cc(OCC(=O)O)c(C)cc1SCc1ccc(-c2ccc(F)cc2)cc1` [Example 10, [4-(4′-Fluoro-biphenyl-4-ylmethylsulfanyl)-5-methoxy-2-methyl-phenoxy]-acetic acid] the same measures were less than 300 nM and 300 to 500 nM. In general, melting point refers to the temperature of the solid-liquid transition. Regarding `Cc1cc(SCc2ccc(OCc3ccc(C(F)(F)F)cc3)cc2)c2c(c1OCC(=O)O)CCC2` [Example 64, {5-Methyl-7-[4-(4-trifluoromethyl-benzyloxy)-benzylsulfanyl]-indan-4-yloxy}-acetic acid], the melting point lay in the range of 165 to 167 °C. Further, the EC50 in series [1] (setting [3]) is more than 5000 nM. Taken in the same sequence, the figures for `Cc1onc(-c2c(Cl)cccc2Cl)c1CSc1ccc(OCC(=O)O)c2c1CCC2` [Example 88, {7-[3-(2,6-Dichloro-phenyl)-5-methyl-isoxazol-4-ylmethylsulfanyl]-indan-4-yloxy}-acetic acid] were 151 to 152 °C and more than 5000 nM. Consider `CC(C)(C)c1ccc(COc2ccc(CSc3ccc(OCC(=O)O)c4c3CCC4)cc2)cc1` [Example 67, {7-[4-(4-tert-Butyl-benzyloxy)-benzylsulfanyl]-indan-4-yloxy}-acetic acid], for which the melting point lay in the range of 152 to 153 °C. Further, the EC50 in series [1] was less than 300 nM. In the case of `Cc1cc(SCc2cc(-c3ccc(C(F)(F)F)cc3)on2)ccc1OCC(=O)O` [Example 42, {2-Methyl-4-[5-(4-trifluoromethyl-phenyl)-isoxazol-3-ylmethylsulfanyl]-phenoxy}-acetic acid], the EC50 in series [2] lay in the range of 2000 to 5000 nM.

Compound `O=C(O)COc1ccc(SCc2ccc(OCc3ccc(OC(F)(F)F)cc3)cc2)c2c1CCC2` [Example 75, {7-[4-(4-Trifluoromethoxy-benzyloxy)-benzylsulfanyl]-indan-4-yloxy}-acetic acid] came in with a melting point of 140 to 142 °C. For the same compound, the EC50 in series [1] (setting [3]) was in the range of 500 to 1000 nM. For `O=C(O)COc1ccc(SCc2ccc(-c3ccc(C(F)(F)F)cc3)cc2)c2c1CCC2` [Example 12, [7-(4′-Trifluoromethyl-biphenyl-4-ylmethylsulfanyl)-indan-4-yloxy]-acetic acid] the same measures were 158 to 159 °C and less than 300 nM. Compound `O=C(O)COc1ccc(SCCc2ccc(-c3ccc(C(F)(F)F)cc3)cc2)c2c1CCC2` [Example 90, {7-[2-(4′-Trifluoromethyl-biphenyl-4-yl)-ethylsulfanyl]-indan-4-yloxy}-acetic acid] showed a melting point of 170 to 172 °C. Moreover, in series [1] (setting [3]), the EC50 was 500 to 1000 nM.

The compound `COc1ccc(CSc2ccc(OCC(=O)O)c3c2CCC3)cc1OCc1ccc(C(F)(F)F)cc1` [Example 78, {7-[4-Methoxy-3-(4-trifluoromethyl-benzyloxy)-benzylsulfanyl]-indan-4-yloxy}-acetic acid] yielded a melting point of 150 to 151 °C. Moreover, in series [1] (setting [3]), the EC50 fell in the range of 300 to 500 nM. For `O=C(O)COc1ccc(SCc2cc(-c3ccc(Cl)cc3)no2)c2c1CCC2` [Example 98, {7-[3-(4-Chloro-phenyl)-isoxazol-5-ylmethylsulfanyl]-indan-4-yloxy}-acetic acid], the melting point lay in the range of 158 to 160 °C. The EC50 in series [1] (setting [3]) is 2000 to 5000 nM. As for `O=C(O)COc1ccc(SCc2ccc(OCc3ccccc3)cc2)c2c1CCC2` [Example 69, [7-(4-Benzyloxy-benzylsulfanyl)-indan-4-yloxy]-acetic acid], the melting point is 145 to 147 °C. Further, the EC50 in series [1] (setting [3]) is 2000 to 5000 nM. As for `O=C(O)COc1ccc(CCc2ccc(-c3ccc(C(F)(F)F)cc3)cc2)c2c1CCC2` [Example 91, {7-[2-(4′-Trifluoromethyl-biphenyl-4-yl)-ethyl]-indan-4-yloxy}-acetic acid], the melting point lay in the range of 188 to 190 °C. Moreover, the EC50 in series [1] (setting [3]) lay in the range of 2000 to 5000 nM.

The compound `O=C(O)COc1ccc(SCc2cc(-c3ccc(C(F)(F)F)cc3)no2)c2c1CCC2` [Example 89, {7-[3-(4-Trifluoromethyl-phenyl)-isoxazol-5-ylmethylsulfanyl]-indan-4-yloxy}-acetic acid] showed a melting point of 166 to 168 °C. Also, in series [1] (setting [3]), the EC50 lay in the range of 1000 to 2000 nM. Turning to `O=C(O)COc1ccc(SCc2ccc(OCc3ccc(F)cc3C(F)(F)F)cc2)c2c1CCC2` [Example 76, {7-[4-(4-Fluoro-2-trifluoromethyl-benzyloxy)-benzylsulfanyl]-indan-4-yloxy}-acetic acid], the melting point lay in the range of 125 to 127 °C. Further, the EC50 in series [1] (setting [3]) was 1000 to 2000 nM.

The compound `O=C(O)COc1ccc(SCc2ccc(OCc3cc(Cl)cc(Cl)c3)cc2)c2c1CCC2` [Example 77, {7-[4-(3,5-Dichloro-benzyloxy)-benzylsulfanyl]-indan-4-yloxy}-acetic acid] gave a melting point of 134 to 135 °C. For the same compound, the EC50 in series [1] (setting [3]) lay in the range of 300 to 500 nM. For `O=C(O)COc1ccc(SCc2ccc(OCc3cc(Cl)ccc3Cl)cc2)c2c1CCCO2` [Example 85, {8-[4-(2,5-Dichloro-benzyloxy)-benzylsulfanyl]-chroman-5-yloxy}-acetic acid], the melting point was in the range of 98 to 100 °C. Besides, in series [1] (setting [3]), the EC50 was in the range of 1000 to 2000 nM.

Turning to `Cc1cc(SCc2ccc(OCc3ccccn3)cc2)ccc1OCC(=O)O` [Example 60, {2-Methyl-4-[4-(pyridine-2-ylmethoxy)-benzylsulfanyl]-phenoxy}-acetic acid], the melting point stood at 150 °C. Also, the EC50 in series [1] (setting [3]) is more than 5000 nM. Compound `O=C(O)COc1ccc(SCc2ccc(-c3ccc(C(F)(F)F)cc3)cc2)c2c1CCCO2` [Example 93, [8-(4′-Trifluoromethyl-biphenyl-4-ylmethylsulfanyl)-chroman-5-yloxy]-acetic acid] returned a melting point of 170 to 172 °C. For the same compound, the EC50 in series [1] (setting [3]) is 500 to 1000 nM. The compound `Cc1cc(SCc2ccc(OCc3ccc(C(F)(F)F)cc3)cc2)ccc1OCC(=O)O` [Example 15, {2-Methyl-4-[4-(4-trifluoromethyl-benzyloxy)-benzylsulfanyl]-phenoxy}-acetic acid] displayed a melting point of 133 °C. In addition, the EC50 in series [1] (setting [3]) was less than 300 nM.

Compound `Cc1cc(SCc2cc(-c3ccc(C(F)(F)F)cc3)on2)c(Cl)cc1OCC(=O)O` [Example 99, {5-Chloro-2-methyl-4-[5-(4-trifluoromethyl-phenyl)-isoxazol-3-ylmethylsulfanyl]-phenoxy}-acetic acid] showed a melting point of 180 to 182 °C. Further, in series [1] (setting [3]), the EC50 was in the range of 300 to 500 nM. `O=C(O)COc1ccc(SCc2cccc(OCc3ccc(Cl)c(C(F)(F)F)c3)c2)c2c1CCC2` [Example 80, {7-[3-(4-Chloro-3-trifluoromethyl-benzyloxy)-benzylsulfanyl]-indan-4-yxoly}-acetic acid]: the melting point was 121 to 122 °C. In addition, the EC50 in series [1] (setting [3]) was 1000 to 2000 nM. For `O=C(O)COc1ccc(SCc2cc(-c3ccccc3Cl)on2)c2c1CCC2` [Example 87, {7-[5-(2-Chloro-phenyl)-isoxazol-3-ylmethylsulfanyl]-indan-4-yloxy}-acetic acid] the same measures were 161 to 162 °C and 2000 to 5000 nM.

The values above are taken from patent publication US6964983B2, “Compounds that modulate PPAR activity and methods for their preparation” (Warner-Lambert Company, LLC, priority 2002, dated 2005).
